Results reported in patent US20240343706A1, “PIPERIDINE-2,6-DIONE DERIVATIVES WHICH BIND TO CEREBLON, AND METHODS OF USE THEREOF” (Captor Therapeutics S.A., priority 2019, published 2024).

Experiments:
[1] = target: CRBN-DDB1 protein complex (Homo sapiens, UniProt Q96SW2); test: Fluorescence polarization (FP) assay, displacement of Cy5-labelled thalidomide; conditions: 25 nM CRBN-DDB1, 5 nM Cy5-labelled thalidomide, read-out: CRBN binding Ki
Description: CRBN-DDB1 protein complex was mixed with Cy5-labelled thalidomide and a compound to be tested (the “test compound”). […] The test solution was added to a 384-well assay plate.
The plate was spun-down (1 min, 1000 rpm, 22° C.) and then shaken using a VibroTurbulator for 10 min at room temperature (20-25° C.), with the frequency set to level 3. The assay plate with protein and the tracer was incubated for 60 min at room temperature (20-25° C.) prior to read-out with a plate reader.
The FP experiment was carried out with various concentrations of the test compounds in order to measure Ki values.

[2] = system: IKZF1; test: IKZF1 degradation assay, H929 cell line (western blot densitometry); assay type: cell-based; conditions: H929 cells; for % of protein reduction based on densitometry values, IKZF 1 (24 H): summary Table 10, 20 μM (some compounds 10 and 20 μM)
Excerpt: (§1) After primary and secondary Ab staining, the membranes were washed and signals developed. The densitometry analysis was implemented to obtain the numeric values used later in the protein level evaluation process.

[3] = system: IKZF3; test: IKZF3 degradation assay, H929 cell line (western blot densitometry); assay type: cell-based; conditions: H929 cells
[4] = system: SALL4; test: SALL4 degradation assay, Kelly cell line (western blot densitometry); assay type: cell-based; conditions: summary Table 10; Kelly cells, 24 H; 20 μM (some compounds 10 and 20 μM)
Excerpt: as §1

[5] = system: CK1α; test: CK1α degradation assay, Kelly cell line (western blot densitometry); assay type: cell-based; conditions: summary Table 10; Kelly cells, 24 H; 20 μM (some compounds 10 and 20 μM)
Excerpt: as §1

Chain of CRBN-DDB1 protein complex (Q96SW2 whole entry): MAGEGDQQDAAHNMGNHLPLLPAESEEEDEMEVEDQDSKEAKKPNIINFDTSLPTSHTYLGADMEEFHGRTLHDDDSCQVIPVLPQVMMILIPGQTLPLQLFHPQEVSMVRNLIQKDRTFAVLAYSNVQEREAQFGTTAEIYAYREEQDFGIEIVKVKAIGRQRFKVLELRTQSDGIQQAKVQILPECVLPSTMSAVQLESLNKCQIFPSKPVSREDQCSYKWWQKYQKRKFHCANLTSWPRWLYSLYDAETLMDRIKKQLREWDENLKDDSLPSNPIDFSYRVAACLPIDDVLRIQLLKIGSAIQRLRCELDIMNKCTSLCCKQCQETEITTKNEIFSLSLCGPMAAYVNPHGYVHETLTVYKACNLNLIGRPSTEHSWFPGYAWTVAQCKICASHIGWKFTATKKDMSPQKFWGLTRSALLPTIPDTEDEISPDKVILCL
Chain of CRBN-DDB1 protein complex (Q16531 whole entry partner): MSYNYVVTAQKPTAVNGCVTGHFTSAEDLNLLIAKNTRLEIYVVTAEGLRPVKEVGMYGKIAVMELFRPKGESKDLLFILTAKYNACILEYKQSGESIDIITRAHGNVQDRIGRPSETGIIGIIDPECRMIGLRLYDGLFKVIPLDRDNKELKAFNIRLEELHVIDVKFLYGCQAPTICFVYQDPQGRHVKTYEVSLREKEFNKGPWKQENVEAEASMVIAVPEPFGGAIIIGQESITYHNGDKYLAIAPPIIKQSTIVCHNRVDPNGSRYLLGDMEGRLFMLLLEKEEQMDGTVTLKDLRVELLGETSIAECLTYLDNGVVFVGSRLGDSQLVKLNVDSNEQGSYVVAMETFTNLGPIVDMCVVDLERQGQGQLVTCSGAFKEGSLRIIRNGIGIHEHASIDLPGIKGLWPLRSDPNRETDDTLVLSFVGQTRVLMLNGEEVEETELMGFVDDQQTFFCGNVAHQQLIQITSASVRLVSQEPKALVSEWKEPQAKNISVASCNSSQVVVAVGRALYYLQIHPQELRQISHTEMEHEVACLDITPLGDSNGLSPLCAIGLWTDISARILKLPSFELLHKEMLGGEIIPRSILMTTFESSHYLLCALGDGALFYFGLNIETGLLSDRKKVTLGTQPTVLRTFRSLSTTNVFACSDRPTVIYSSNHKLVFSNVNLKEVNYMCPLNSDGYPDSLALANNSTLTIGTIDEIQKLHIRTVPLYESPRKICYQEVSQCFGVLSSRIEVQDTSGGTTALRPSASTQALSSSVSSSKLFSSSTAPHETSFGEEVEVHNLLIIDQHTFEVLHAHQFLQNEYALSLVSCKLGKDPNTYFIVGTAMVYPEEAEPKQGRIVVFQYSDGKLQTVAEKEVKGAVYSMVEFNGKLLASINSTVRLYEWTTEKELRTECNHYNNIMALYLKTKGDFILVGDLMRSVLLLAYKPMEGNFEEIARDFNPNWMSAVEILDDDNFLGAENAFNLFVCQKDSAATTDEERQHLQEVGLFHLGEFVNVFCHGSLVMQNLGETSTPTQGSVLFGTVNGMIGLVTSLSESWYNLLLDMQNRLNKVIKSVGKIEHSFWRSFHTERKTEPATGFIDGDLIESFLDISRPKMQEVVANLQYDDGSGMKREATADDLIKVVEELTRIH

`Cc1nc2cccc(C(=O)NC3CCC(=O)NC3=O)c2o1` (stereo not drawn) [Compound 52, N-(2,6-dioxopiperidin-3-yl)-2-methylbenzo[d]oxazole-7-carboxamide] was tested, and the Ki [1] was 1 to 10 µM.
In the case of `Cc1sc2c(c1C)C(c1ccc(Cl)cc1)=N[C@@H](CC(=O)Nc1ccc(OCCOCCOCCOCCNc3cccc4c3C(=O)N(C3CCC(=O)NC3=O)C4=O)cc1)c1nnc(C)n1-2` (stereo partly drawn) [ARV-825, reference compound], the “% of IKZF1 α protein reduction based on densitometry values” (“% of IKZF1 α protein reduction based” below) ([2]; 0.1 μM, 6 h) is reported as >25% (>25% for 26-74% of IKZF1 protein reduction), the “% of IKZF1 α protein reduction based” value ([2]; 1 μM, 6 h) is reported as >25% (>25% for 26-74% of IKZF1 protein reduction) and the “% of IKZF1 α protein reduction based” value ([2]; 10 μM, 6 h) is reported as >25% (>25% for 26-74% of IKZF1 protein reduction). The IKZF1 degradation ([2]; 6 h, 0.1-10 μM) was roughly 50%, the “% of IKZF3 protein reduction based on densitometry values, IKZF3 Band I” value ([3]; 0.1 μM, 6 h) was >25% (>25% for 26-74% of IKZF3 protein reduction) and the “% of IKZF3 protein reduction based on densitometry values, IKZF3 Band II” value ([3]; 0.1 μM, 6 h) was >25% (>25% for 26-74% of IKZF3 protein reduction). The “% of IKZF3 protein reduction based on densitometry values, IKZF3 Band I” value ([3]; 1 μM, 6 h) was >25% (>25% for 26-74% of IKZF3 protein reduction), the “% of IKZF3 protein reduction based on densitometry values, IKZF3 Band II” value ([3]; 1 μM, 6 h) was >25% (>25% for 26-74% of IKZF3 protein reduction) and the “% of IKZF3 protein reduction based on densitometry values, IKZF3 Band I” value ([3]; 10 μM, 6 h) was >25% (>25% for 26-74% of IKZF3 protein reduction). The “% of IKZF3 protein reduction based on densitometry values, IKZF3 Band II” value ([3]; 10 μM, 6 h) was >25% (>25% for 26-74% of IKZF3 protein reduction) and the IKZF3 degradation ([3]; 6 h, 0.1-10 μM) was roughly 60%.
Work on `O=C1CCC(NC(=O)c2cccc3c(-c4cccs4)n[nH]c23)C(=O)N1` (stereo not drawn) [Compound 43, N-(2,6-dioxopiperidin-3-yl)-3-(thiophen-2-yl)-1H-indazole-7-carboxamide] yielded a Ki [1] of 1 to 10 µM.
In the case of `O=C1CCC(NC(=O)c2cccc3nc[nH]c23)C(=O)N1` (stereo not drawn) [Compound 2, N-(2,6-dioxopiperidin-3-yl)-1H-1,3-benzodiazole-7-carboxamide], the Ki [1] is reported as 1 to 10 µM.
Work on `Cc1nc2c(C(=O)NC3CCC(=O)NC3=O)cccc2o1` (stereo not drawn) [Compound 51, N-(2,6-dioxopiperidin-3-yl)-2-methylbenzo[d]oxazole-4-carboxamide] yielded a Ki [1] of 1 to 10 µM.
With `O=C1CCC(NC(=O)c2csc3[nH]cnc23)C(=O)N1` (stereo not drawn) [Compound 60, N-(2,6-dioxopiperidin-3-yl)-1H-thieno[2,3-d]imidazole-6-carboxamide] the Ki [1] was 1 to 10 µM.
For `O=C1CCC(NC(=O)c2cccc3[nH]c(Cl)nc23)C(=O)N1` (stereo not drawn) [Compound 12, 2-chloro-N-(2,6-dioxopiperidin-3-yl)-1H-benzo[d]imidazole-4-carboxamide], the Ki [1] was less than 1 µM.
In the case of `Nc1ccc2cn[nH]c2c1C(=O)NC1CCC(=O)NC1=O` (stereo not drawn) [Compound 48, 6-amino-N-(2,6-dioxopiperidin-3-yl)-1H-indazole-7-carboxamide], the Ki [1] is reported as 1 to 10 µM.
`Nc1ccc2[nH]c(C(F)(F)F)nc2c1C(=O)NC1CCC(=O)NC1=O` (stereo not drawn) [Compound 26, 6-amino-N-(2,6-dioxopiperidin-3-yl)-2-(trifluoromethyl)-1H-1,3-benzodiazole-7-carboxamide] gave a Ki [1] of 1 to 10 µM.
`O=C1CCC(NC(=O)c2ccnc3scnc23)C(=O)N1` (stereo not drawn) [Compound 54, N-(2,6-dioxopiperidin-3-yl)thiazolo[5,4-b]pyridine-7-carboxamide] gave a Ki [1] of 1 to 10 µM.
For `CCCCCC(=O)Nc1cc(C(=O)NC2CCC(=O)NC2=O)c2c(c1)ncn2C` (stereo not drawn) [Compound 6, N-(2,6-dioxopiperidin-3-yl)-5-hexanamido-1-methyl-1H-benzo[d]imidazole-7-carboxamide], the “% of protein reduction based on densitometry values, SALL4 (24 H)” value (from here on “% of protein reduction based … SALL4 (24 H)”) [4] was ≤25% (≤25% for 0-25% of SALL4 protein reduction), the “% of protein reduction based on densitometry values, CK1α (24 H)” value (“% of protein reduction based … CK1α (24 H)” for short) [5] was ≤25% (≤25% for 0-25% of CK1a protein reduction) and the “% of protein reduction based on densitometry values, IKZF 1 (24 H)” value (“% of protein reduction based … IKZF 1 (24 H)” below) [2] was ≤25% (≤25% for 0-25% of IKZF1 protein reduction).
With `O=C1CCC(NC(=O)c2cccc3[nH]c(=O)[nH]c23)C(=O)N1` (stereo not drawn) [Compound 3, N-(2,6-dioxopiperidin-3-yl)-2-oxo-2,3-dihydro-1H-benzo[d]imidazole-4-carboxamide] the “% of protein reduction based … SALL4 (24 H)” value [4] was ≤25% (≤25% for 0-25% of SALL4 protein reduction), the “% of protein reduction based … CK1α (24 H)” value [5] was ≤25% (≤25% for 0-25% of CK1a protein reduction) and the “% of protein reduction based … IKZF 1 (24 H)” value [2] was ≤25% (≤25% for 0-25% of IKZF1 protein reduction).
Compound `Cc1sc2c(c1C)C(c1ccc(Cl)cc1)=N[C@@H](CC(=O)Nc1ccc(OCCOCCOCCNC(=O)CCc3nc4c(C(=O)NC5CCC(=O)NC5=O)cccc4[nH]3)cc1)c1nnc(C)n1-2` (stereo partly drawn) [Compound 63, 2-(3-((2-(2-(2-(4-(2-((S)-4-(4-chlorophenyl)-2,3,9-trimethyl-6H-thieno[3,2-f][1,2,4]triazolo[4,3-a][1,4]diazepin-6-yl)acetamido)phenoxy)ethoxy)ethoxy)ethyl)amino)-3-oxopropyl)-N-(2,6-dioxopiperidin-3-yl)-1H-benzo[d]imidazole-7-carboxamide] has a Ki [1] of 1 to 10 µM.
With `O=C1CCC(NC(=O)c2cc(Br)cc3cn[nH]c23)C(=O)N1` (stereo not drawn) [Compound 47, 5-bromo-N-(2,6-dioxopiperidin-3-yl)-1H-indazole-7-carboxamide] the Ki [1] was 1 to 10 µM.
For `Cc1cc2cccc(C(=O)NC3CCC(=O)NC3=O)c2s1` (stereo not drawn) [Compound 41, N-(2,6-dioxopiperidin-3-yl)-2-methylbenzo[b]thiophene-7-carboxamide], the Ki [1] was 1 to 10 µM.
Work on `O=C1CCC(NC(=O)c2cncc3[nH]cnc23)C(=O)N1` (stereo not drawn) [Compound 10, N-(2,6-dioxopiperidin-3-yl)-3H-imidazo[4,5-c]pyridine-7-carboxamide] yielded a Ki [1] of 1 to 10 µM.
In the case of `O=C1CCC(NC(=O)c2cccc3[nH]nnc23)C(=O)N1` (stereo not drawn) [Compound 55, N-(2,6-dioxopiperidin-3-yl)-1H-benzo[d][1,2,3]triazole-4-carboxamide], the Ki [1] is reported as 1 to 10 µM, the “% of IKZF3 protein reduction based on densitometry values, IKZF3 Band I” value ([3]; 10 μM, 24 h) is reported as ≤25% (≤25% for 0-25% of IKZF3 protein reduction) and the “% of IKZF3 protein reduction based on densitometry values, IKZF3 Band II” value ([3]; 10 μM, 24 h) is reported as ≤25% (≤25% for 0-25% of IKZF3 protein reduction). For the same compound, the “% of IKZF3 protein reduction based on densitometry values, IKZF3 Band I” value ([3]; 20 μM, 24 h) was ≤25% (≤25% for 0-25% of IKZF3 protein reduction) and the “% of IKZF3 protein reduction based on densitometry values, IKZF3 Band II” value ([3]; 20 μM, 24 h) was ≤25% (≤25% for 0-25% of IKZF3 protein reduction).
`Cn1cnc2cccc(C(=O)NC3CCC(=O)NC3=O)c21` (stereo not drawn) [Compound 5, N-(2,6-dioxopiperidin-3-yl)-1-methyl-1H-benzo[d]imidazole-7-carboxamide] was tested, and the “% of protein reduction based … SALL4 (24 H)” value [4] was ≤25% (≤25% for 0-25% of SALL4 protein reduction), the “% of protein reduction based … CK1α (24 H)” value [5] was ≤25% (≤25% for 0-25% of CK1a protein reduction) and the “% of protein reduction based … IKZF 1 (24 H)” value [2] was ≤25% (≤25% for 0-25% of IKZF1 protein reduction).
`O=C1CCC(NC(=O)c2cccc3nnsc23)C(=O)N1` (stereo not drawn) [Compound 58] showed a Ki [1] of 10 to 50 µM.
Work on `O=C1CCC(NC(=O)c2ccnc3[nH]cnc23)C(=O)N1` (stereo not drawn) [Compound 9, N-(2,6-dioxopiperidin-3-yl)-3H-imidazo[4,5-b]pyridine-7-carboxamide] yielded a Ki [1] of 1 to 10 µM.
For `O=C1CCC(NC(=O)c2nccc3[nH]cnc23)C(=O)N1` (stereo not drawn) [Compound 11, N-(2,6-dioxopiperidin-3-yl)-1H-imidazo[4,5-c]pyridine-4-carboxamide], the Ki [1] was 1 to 10 µM.
In the case of `Cc1nc2c(C(=O)NC3CCC(=O)NC3=O)c(OCC(=O)NCCCCCCCCNC(=O)C[C@@H]3N=C(c4ccc(Cl)cc4)c4c(sc(C)c4C)-n4c(C)nnc43)ccc2[nH]1` (stereo partly drawn) [Compound 67, 6-(2-((8-(2-((S)-4-(4-chlorophenyl)-2,3,9-trimethyl-6H-thieno[3,2-f][1,2,4]triazolo[4,3-a][1,4]diazepin-6-yl)acetamido)octyl)amino)-2-oxoethoxy)-N-(2,6-dioxopiperidin-3-yl)-2-methyl-1H-benzo[d]imidazole-7-carboxamide], the Ki [1] is reported as 1 to 10 µM.
For `Cc1nc2c(C(=O)NC3CCCC(=O)NC3=O)cccc2[nH]1` (stereo not drawn) [Compound 20, N-(2,7-dioxoazepan-3-yl)-2-methyl-1H-benzo[d]imidazole-4-carboxamide], the “% of protein reduction based … SALL4 (24 H)” value [4] was ≤25% (≤25% for 0-25% of SALL4 protein reduction), the “% of protein reduction based … CK1α (24 H)” value [5] was ≤25% (≤25% for 0-25% of CK1a protein reduction) and the “% of protein reduction based … IKZF 1 (24 H)” value [2] was ≤25% (≤25% for 0-25% of IKZF1 protein reduction).
`O=C1CCC(NC(=O)c2cccc3c(Br)n[nH]c23)C(=O)N1` (stereo not drawn) [Compound 42, 3-bromo-N-(2,6-dioxopiperidin-3-yl)-1H-indazole-7-carboxamide] gave a Ki [1] of 10 to 50 µM.
`N#Cc1nc2c(C(=O)NC3CCC(=O)NC3=O)cccc2[nH]1` (stereo not drawn) [Compound 22, 2-cyano-N-(2,6-dioxopiperidin-3-yl)-1H-benzo[d]imidazole-4-carboxamide] gave a Ki [1] of less than 1 µM.
`Cc1nc2cccc(C(=O)NC3CCC(=O)NC3=O)c2s1` (stereo not drawn) [Compound 53, N-(2,6-dioxopiperidin-3-yl)-2-methylbenzo[d]thiazole-7-carboxamide] gave a Ki [1] of 1 to 10 µM.
